Experimental data published in publication PMC10988834, “Neq2X7: a multi-purpose and open-source fusion DNA polymerase for advanced DNA engineering and diagnostics PCR” (BMC Biotechnology, 2024).

Molecular target: T1, Neq2X (Nanoarchaeum equitans, UniProt Q74M37+Q74N74, Q74N74:A523R/Q74N74:N540R)
T1 construct: gene NEQ068; double mutant Neq DNA polymerase without Sso7d, N-terminal 6xHis; one polypeptide, E. coli Rosetta2 (DE3) pLysS
Assay: PCR amplification, agarose gel
Format: biochemical
Details: with dATP, dCTP, dGTP, 1 min/kb, extension 72 °C

T1 sequence (Q74M37 entry or part of it): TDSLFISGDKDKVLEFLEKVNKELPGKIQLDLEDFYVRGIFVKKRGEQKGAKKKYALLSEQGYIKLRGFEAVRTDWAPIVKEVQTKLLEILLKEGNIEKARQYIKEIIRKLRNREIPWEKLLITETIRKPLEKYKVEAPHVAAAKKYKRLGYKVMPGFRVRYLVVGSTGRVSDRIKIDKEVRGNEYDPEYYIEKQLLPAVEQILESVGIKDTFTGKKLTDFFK
T1 sequence (Q74N74 entry or part of it A523R/N540R): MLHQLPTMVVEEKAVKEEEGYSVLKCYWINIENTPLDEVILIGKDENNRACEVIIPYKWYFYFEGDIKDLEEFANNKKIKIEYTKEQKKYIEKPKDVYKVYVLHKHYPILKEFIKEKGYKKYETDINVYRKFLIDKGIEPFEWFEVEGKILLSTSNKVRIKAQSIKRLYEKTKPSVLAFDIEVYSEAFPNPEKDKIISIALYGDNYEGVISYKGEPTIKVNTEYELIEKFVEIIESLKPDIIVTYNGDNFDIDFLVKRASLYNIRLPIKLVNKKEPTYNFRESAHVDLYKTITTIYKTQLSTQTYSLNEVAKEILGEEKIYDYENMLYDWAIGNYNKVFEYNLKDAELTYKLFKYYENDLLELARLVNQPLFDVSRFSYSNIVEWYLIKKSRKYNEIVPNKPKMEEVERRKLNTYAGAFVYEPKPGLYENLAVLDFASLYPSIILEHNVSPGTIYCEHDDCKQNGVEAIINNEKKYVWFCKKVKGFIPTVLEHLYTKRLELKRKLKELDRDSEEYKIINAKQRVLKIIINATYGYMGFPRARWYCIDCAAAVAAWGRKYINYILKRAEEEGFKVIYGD

Cc1cn([C@H]2C[C@H](O)[C@@H](COP(=O)(O)OP(=O)(O)OP(=O)(O)O)O2)c(=O)[nH]c1=O [dTTP]
PCR amplification, agarose gel (3-12 kb amplicons): all three polymerases amplified DNA to a detectable level

O=c1ccn([C@H]2C[C@H](O)[C@@H](COP(=O)(O)OP(=O)(O)OP(=O)(O)O)O2)c(=O)[nH]1 [dUTP]
PCR amplification, agarose gel (dUTP fully replacing dTTP, 3 kb amplicon): all tested polymerases were able to generate a detectable PCR product
